One assay addresses T1, IDO in HeLa cell (Homo sapiens, UniProt P14902).
T1 construct: 50 ng/ml cytokine human IFN-γ and drugs with different concentrations; endogenous in cells; host or cells: HeLa cells stimulated with human IFN-γ
The assay is described as follows: Inhibition of IDO enzyme activity in HeLa cells by Chidamide in combination with IDO inhibitor. The following applies: IFN-γ, 48 hours. It counts as cell-based. The protocol:
HeLa cells were digested by trypsin, collected and counted, then inoculated in a 96-well cell culture plate at 2×10^4 cells per well and cultured at 5% CO2 and 37° C. After the cells were inoculated overnight, the medium was replaced with 200 μM L-tryptophan phenol red-free DMEM medium, and 50 ng/ml cytokine human IFN-γ and drugs with different concentrations (administered according to the group and final concentration shown in FIG. 1) were added simultaneously, the vehicle control (DMSO) and cytokine-free and L-tryptophan negative control wells were set at the same time, and triplicate wells were set. After 48 hours of drug treatment, 200 μL of the supernatant from culture well was pipetted out, added with 40 μL of pre-prepared 30% (w/v) trichloroacetic acid solution, reacted at 65° C. for 20 minutes, and then centrifuged at 12000 rpm for 15 minutes. 100 μL of the supernatant was pipetted out and added into a 96-well flat bottom plate, then equal volume of 2% p-dimethylaminobenzaldehyde in glacial acetic acid was added and mixed well, and stood at room temperature for 10 minutes. The absorbance value of each well at wavelength of 492 nm was read with microplate reader (ELX800NB). After subtracting the cell-free medium OD492-BLK as a blank control from the reading of each well, the OD492-T of each dosing well with subtraction of the detection background and the […] of drug-free positive control well were obtained.
The relative enzyme activity inhibition rate against IDO of each dosing well cell was calculated according to the following formula: enzyme activity inhibition rate against IDO=(OD492−T0−OD492−T)/OD492−T0×100%

The subject of assay [1] is CT-26 tumor. The assay can be described thus: Efficacy experiment on Balb/c mouse CT-26 tumor model. It counts as in vivo. To be noted: method similar to Example 93.
Assay [2] addresses T2, human indoleamine 2,3-dioxygenase 1 (hIDO1) (Homo sapiens, UniProt P14902).
T2 construct: up-regulate the expression of endogenous IDO1 under the induction of human IFN-γ; endogenous in cells; host or cells: HeLa cells stimulated with human IFN-γ
The assay can be described thus: Inhibitory activity test at cellular level: IFN-γ-induced HeLa cells, kynurenine colour reaction. To be noted: 48 hours; for inhibition at 0.1 µM: 50 ng/ml human IFN-γ, 200 μM L-tryptophan, each test compound 100 nM, read-out: hIDO1-cell base inhibition rate (%); for EC50: human IFN-γ, read-out: hIDO1-cell base EC50. The assay is classed as cell-based. The text has this: The subject of this assay was to comprehensively evaluate different compounds on their enzymatic inhibitory activity in vitro and on cell models against human indoleamine 2,3-dioxygenase 1 (hIDO1).
In the present application, the inventors used Hela cells expressing IDO1 induced by IFN-γ as a model, to test the IDO1 inhibitory activity of the compounds at the cellular level.
HeLa cells are human cervical cancer cell lines, which can up-regulate the expression of endogenous IDO1 under the induction of human IFN-γ. By adding the substrate L-tryptophan to cell culture medium, the enzymatic catalysis product kynurenine in cell supernatant was detected. In this experiment, the cultured Hela cells were used and co-incubated with different concentrations of test compounds under stimulation of human IFN-γ for a specified period of time, and the color reaction method of enzyme product and p-dimethylaminobenzaldehyde was used to detect the effect on IDO enzyme activity of cells treated by the test compounds.
(1) Hela cells were inoculated into 96-well culture plates at an appropriate concentration (about 20,000 cells/well). […] The cells were continuously cultured for 48 hours before detection.
(2) 200 μL of the supernatant in the culture well was pipetted out, added with 40 μL of the pre-prepared 30% (w/v) trichloroacetic acid solution, and reacted at 65° C. for 20 minutes, and then centrifuged at 12000 rpm for 15 minutes.
(3) 100 μL of the supernatant after centrifugation was pipetted out, added into a 96-well flat bottom plate, then added with an equal volume of 2% p-dimethylaminobenzaldehyde in glacial acetic acid and mixed well, and stood at room temperature for 10 minutes.
(4) microplate reader (ELX800NB) was used to detect the absorbance value of each well, and the detection wavelength was 492 nm.
In addition, after the cell enzyme activity inhibition rates of test compounds with different concentration gradients were separately calculated, their cell enzyme activity half inhibition concentrations (EC50) were calculated by using EC50 calculator.
According to the above-mentioned experimental method, the compounds of the present application were subjected to IDO1 enzymatic evaluation at cytological level (the concentration of each test compound was all 100 nM).
According to the above-mentioned experimental method, the compound of the present application was subjected to hIDO1-cell base EC50 detection.

In assay [3] the test system is CT-26 tumor. The assay is described as follows: Efficacy experiment on Balb/c mouse CT-26 tumor model. It counts as in vivo. The following applies: for average tumor weight: Example 93, FIG. 6: tumors stripped after last administration on 17th day, vehicle group 2.7 g; for Relative tumor inhibition rate (%): Example 93: Chidamide 25 mg/kg, Example 3 20 mg/kg, intragastric once per day, 17 days, tumor volume vs vehicle control. On the procedure:
CT-26 cells were subjected to multiplication culture and kept in a logarithmic growth state. After the number of cells met the requirement, the cells were digested with trypsin and collected, washed sufficiently with a large amount of PBS twice to remove trypsin and serum components, centrifuged at room temperature and 800 rpm for 10 minutes, and the supernatant was discarded. The cells were resuspended in FBS-free DMEM medium and adjusted to reach a cell concentration of 3×10^7/mL.
Under aseptic condition, the cell suspension was injected into subcutaneous of back of […] at a dose of 100 μL/needle, one injection per Balb/c mouse. During the injection, 1 mL disposable medical syringe was used to ensure that the position and direction for inserting needle to each mouse was basically the same.
Eight days after cell inoculation, the tumor grew to an average volume of about 100 mm^3. The tumor-bearing mice were randomly divided into four groups (9 mice in each group), namely the vehicle control group, the chidamide group (25 mg/kg, intragastric administration, once per day), Example 3 group (20 mg/kg, intragastric administration, once per day), and the combination of Chidamide and Example 3 group, and then the mice were raised in cages after labeling, the mice was administered according to groups and observed for tumor formation every day. The body weight of each mouse was weighted before administration, and the dose was calculated according to per kilogram of body weight, that was, 10 μL of CMC-Na solution per gram of body weight for the vehicle control group, 10 μL of 2.5 mg/mL Chidamide-CMC-Na suspension per gram of body weight for the chidamide group (25 mg/kg), 10 μL of 2 mg/mL the compound of Example 3-CMC-Na suspension per gram of body weight for the Example 3 group (20 mg/kg), and 10 μL of CMC-Na suspension containing 2.5 mg/ml chidamide and 2 mg/ml the compound of Example 3 per gram of body weight for the combination group were administered intragastrically. The longest diameter of tumor (length) and the widest diameter (width) perpendicular thereto were measured by vernier caliper every 2 days, and the tumor volume was calculated by the formula TS=length×(width)^2/2 and recorded. Each mouse was intragastrically administered once per day at regular time; after the last administration on the 17th day, the mice were sacrificed and the tumors of tumor-bearing mice were stripped and weighed with […].
The relative tumor inhibition rate of each administration group was calculated according to the following formula: Relative tumor inhibition rate=(average tumor volume of the vehicle control group−average tumor volume of the administration group)/average tumor volume of the vehicle control group×100%

Where [4] appears, read: Example 90, Table 4: chidamide and Example 20 alone and in combination, FIG. 2.
[5] abbreviates: Example 94, Table 8: chidamide and Example 20 alone and in combination.
Setting [6] is: Example 89, Table 3: chidamide and Example 3 alone and in combination, concentrations per FIG. 1.
[7] abbreviates: Example 91, Table 5: chidamide and Example 72 alone and in combination, FIG. 3.
The mark [8] stands for this setting: Example 95, Table 9: chidamide and Example 72 alone and in combination.

Results on six molecules are retold here after patent publication US12551478B2, “Quinoline derivative having indoleamine-2,3-dioxygenase inhibitory activity” (SHENZHEN CHIPSCREEN BIOSCIENCES CO., LTD., priority 2018, dated 2026).

Where “and” joins values, the source holds several entries; their conditions need not be identical. Equal values may be shown once.

T2 sequence (P14902 whole entry): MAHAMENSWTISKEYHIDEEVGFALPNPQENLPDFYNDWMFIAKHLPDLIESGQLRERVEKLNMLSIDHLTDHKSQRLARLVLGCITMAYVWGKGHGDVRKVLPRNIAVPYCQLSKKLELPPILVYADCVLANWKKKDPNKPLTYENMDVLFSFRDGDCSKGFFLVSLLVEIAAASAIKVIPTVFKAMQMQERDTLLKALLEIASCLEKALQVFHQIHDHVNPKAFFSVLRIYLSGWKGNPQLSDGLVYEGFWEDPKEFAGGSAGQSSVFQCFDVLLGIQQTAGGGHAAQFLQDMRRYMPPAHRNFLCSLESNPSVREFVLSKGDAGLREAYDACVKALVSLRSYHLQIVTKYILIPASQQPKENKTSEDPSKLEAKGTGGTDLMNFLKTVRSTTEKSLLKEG
T1 sequence (P14902 whole entry): as above

For the molecule `O=C(Nc1ccc2c(c1)OCO2)N1CC2(CC(Oc3ccnc4ccc(F)cc34)C2)C1` [Example 20, N-(benzo[d][1,3]dioxol-5-yl)-6-((6-fluoroquinolin-4-yl)oxy)-2-aza-spiro[3.3]heptan-2-carboxamide], at IDO in HeLa cell (setting [4]), the “Average inhibition rate (%) against IDO” value came out at 16%. Besides, the “Relative tumor inhibition rate (%)” value with CT-26 tumor [1] (setting [5]) was 8.3%. Besides, in assay [2], the inhibition at 0.1 µM came to 64% and the EC50 is 46 nM.
As to `O=C(Nc1ccc(Cl)cc1)N1CC2(CC(Oc3ccnc4ccc(F)cc34)C2)C1` [Example 3, N-(4-chlorophenyl)-6-((6-fluoroquinolin-4-yl)oxy)-2-aza-spiro[3.3]heptan-2-carboxamide], the “Average inhibition rate (%) against IDO” value at IDO in HeLa cell (setting [6]) was 31%. Also, in assay [2], the inhibition at 0.1 µM was determined as 90% and the EC50 worked out at 14 nM. In the assay on CT-26 tumor [3], the average tumor weight is given as 2.3 g; the “Relative tumor inhibition rate (%)” value is 20% and 20.1%.
Consider `Nc1cc(F)ccc1NC(=O)c1ccc(CNC(=O)/C=C/c2cccnc2)cc1` [Chidamide, reference compound], for which the “Average inhibition rate (%) against IDO” value on IDO in HeLa cell (setting [6]) amounted to 24%; on IDO in HeLa cell (setting [4]) it was 22%; on IDO in HeLa cell (setting [7]) it was 23%; at IDO in HeLa cell (Example 92, Table 6: chidamide and Example 87 alone and in combination, FIG. 4) it was 23%. For the same molecule, the “Relative tumor inhibition rate (%)” value with CT-26 tumor [1] (setting [5]) was 30%; with CT-26 tumor [1] (setting [8]), 25.4%; in the assay on CT-26 tumor [1] (Example 96, Table 10: chidamide and Example 87 alone and in combination) it was 55%; with CT-26 tumor [3] it was 33% and 33.6%. The average tumor weight in the assay with CT-26 tumor [3] amounted to 1.6 g.
For the molecule `CC(C(=O)Nc1ccc(Cl)cc1)N1CC2C(C1)C2Nc1ccnc2ccc(F)cc12` (stereo not drawn) [Example 72, 2-(6-((6-fluoroquinolin-4-yl)amino)-3-aza-bicyclo[3.1.0]hexan-3-yl)-N-(4-chlorophenyl)propionamide], the “Average inhibition rate (%) against IDO” value on IDO in HeLa cell (setting [7]) amounted to 36%. For the same molecule, the “Relative tumor inhibition rate (%)” value with CT-26 tumor [1] (setting [8]) amounted to 7.6%. In assay [2], the inhibition at 0.1 µM amounted to 88% and the EC50 turned out to be 8 nM.
With `O=C(Nc1ccc2c(c1)OCCO2)N1CC2(CC(Oc3ccnc4ccc(F)cc34)C2)C1` [Example 33, N-(2,3-dihydrobenzo[b][1,4]dioxin-6-yl)-6-((6-fluoroquinolin-4-yl)oxy)-2-aza-spiro[3.3]heptan-2-carboxamide], the inhibition at 0.1 µM in assay [2] came to 10%.
As for `CC(C(=O)Nc1ccc(Cl)cc1)N1CCC2CN(c3ccnc4ccc(F)cc34)CC2C1` (stereo not drawn) [Example 64, N-(4-chlorophenyl)-2-(2-(6-fluoroquinolin-4-yl)octahydro-5H-pyrrolo[3,4-c]pyridin-5-yl)propionamide], the inhibition at 0.1 µM in assay [2] is 96%.

As a reminder, the inhibition is the percentage by which the read-out fell short of the control. A word on the EC50: it is the concentration needed to bring the measured effect to its halfway point.
